According to PubChem BioAssay AID839 (SRMLSC, 2007):
Active and inactive are the calls of the source. The rule behind the calls is not given here.

Assay: yeast growth inhibition, transport mutant vs wild type, confirmation, post-Golgi transport mutant, OD600 growth rate (AID 839)
Conditions: yeast transport mutant vs control strains, stronger effect = higher value
[1] = measured here: mutant growth inhibition 20 uM, at 20 µM
[2] = measured here: wild type growth inhibition 20 uM, at 20 µM
[3] = measured here: wild type growth inhibition 40 uM, at 40 µM

| Compound | growth inhibition (at 40 µM) | growth inhibition [1] | growth inhibition [2] | growth inhibition [3] |
| --- | --- | --- | --- | --- |
| Clc1cc(Br)ccc1OCCOCCN1CCOCC1 | 8.89% | 8.52% | 2.58% | 3.79% |
| C=C(C)C1CC=C(CN2CCC(C(=O)OCC)CC2)CC1 (stereo unspecified) | 1.06% (inactive) | -2.77% | 0.148% | 1.89% |
| CC1CN(CC(O)COc2ccc(C(C)C)cc2)CC(C)O1 (stereo unspecified) | 8.85% | 5.56% | -2.84% | -1.47% |
| CC(C)c1ccc(C(=O)CSc2n[nH]c(-c3ccncc3)n2)cc1 | 12.5% | 7.43% | 4.42% | 13.6% |
| Cc1ccc(CN2CCN(/N=C/c3cc(Br)ccc3O)CC2)cc1 | 21.1% | 18.9% | 7.91% | 7.23% |
| O=C(COc1ccc(Cl)cc1Cl)NCCCN1CCOCC1 | 6.19% | 7.28% | 3.8% | 6.18% |
| Cc1nc(NC(=O)c2ccccc2)sc1-c1csc(NCc2ccccc2)n1 | 32.7% | 20% | 6.67% | 15% |
| Cc1ccc(Cl)c(OCCCCN(C)Cc2ccccc2)c1 | 72.6% | 31.6% | 11.1% | 22.1% |
| O=C(C1COc2ccccc2O1)N1CCN(Cc2ccc3c(c2)OCO3)CC1 (stereo unspecified) | 7.29% | 6.43% | -1.59% | 5.57% |
| O=C(OCn1ncc(Cl)c(Cl)c1=O)c1ccc(C(F)(F)F)cc1 | 46.7% | 50.9% | 13.4% | 16.2% |
| CC1CC(C)CN(CCOc2ccc(Cl)cc2Cl)C1 (stereo unspecified) | 46.7% | 30.7% | 8.64% | 14.7% |
| Cc1cc(C(C)(C)C)ccc1OCCN1CCCC1 | 18.2% | 18.4% | 7.77% | 7.54% |
| O=C(COc1ccc(Br)cc1F)NC1CCN(Cc2ccccc2)CC1 | 27.4% | 12.6% | 2.81% | 5.41% |
| C=C(C)C1CC=C(CN2CC(C)OC(C)C2)CC1 (stereo unspecified) | 4.31% | 11.8% | 13.7% | 1.76% |
| CC1CCCN(CCOCCOc2ccc(Cl)cc2Br)C1 (stereo unspecified) | 53.2% | 23.4% | 8.13% | 12.7% |
| CC1CN(CCCCOc2ccc(C(C)C)cc2)CC(C)O1 (stereo unspecified) | 26.4% | 12.1% | 2.42% | 7.83% |
| Clc1ccc(Cn2nnc(-c3ccc(CN4CCOCC4)cc3)n2)cc1 | 26.7% | 11.9% | 8.16% | 12.6% |
| Cc1ccc(C(=O)c2c(NC(=O)c3ccncc3)sc3c2CCCC3)cc1 | 14.7% | 19.8% | 13.5% | 18.9% |
| N=c1c2c(-c3ccccc3)c(-c3ccccc3)n(Cc3ccco3)c2ncn1Cc1ccccc1 | 38.2% | 8.14% | 9.7% | 12.7% |
| Cc1ccc(OCC(O)CN2CCN(Cc3ccc4c(c3)OCO4)CC2)c(C)c1 (stereo unspecified) | 33% | 12.9% | 2.63% | 10% |
| CCCCCOc1ccc(Cl)cc1CN1CCOCC1 | 17.8% | 26% | 7.83% | -7.6% |
| CCOC(=O)COc1ccccc1C1Nc2ccccc2C(=O)N1c1cccc(Cl)c1 (stereo unspecified) | 21.1% | 19.4% | 13% | 24.8% |
| CCCCCCOc1ccc(CN2CCN(CCO)CC2)cc1 | 33.4% | 20.7% | 7.37% | 13.6% |
| O=S(=O)(c1ccc(Cl)cc1)N1CCN(C2CCN(Cc3ccccc3)CC2)CC1 | 10.4% | 7.74% | 0.396% | 3.66% |
